Source: the OPERA property sets (Mansouri et al. 2018)

Compound | logP
NC(=O)c1cccc(-c2cnc(SCCc3c[nH]cn3)[nH]2)c1 | 1.61
Brc1cccc(-c2cnc(SCCc3c[nH]cn3)[nH]2)c1 | 3.76
O=S(=O)(Oc1ccc(-c2cnc(SCCc3c[nH]cn3)[nH]2)cc1)c1ccccc1 | 3.72
CCCCOc1ccc(-c2cnc(SCCc3c[nH]cn3)[nH]2)cc1 | 4.11
O=[N+]([O-])c1ccc(-c2cnc(SCCc3c[nH]cn3)[nH]2)cc1 | 2.75
Clc1ccc(-c2cnc(SCCc3c[nH]cn3)[nH]2)cc1 | 3.66
CCCc1cccc(-c2cnc(SCCc3c[nH]cn3)[nH]2)c1 | 3.7
c1ccc(-c2cnc(SCCc3c[nH]cn3)[nH]2)cc1 | 2.62
NC(=O)c1ccc(-c2cnc(SCCc3c[nH]cn3)[nH]2)cc1 | 1.4
CCCc1ccc(-c2cnc(SCCc3c[nH]cn3)[nH]2)cc1 | 4.09
O=[N+]([O-])c1cccc(-c2cnc(SCCc3c[nH]cn3)[nH]2)c1 | 2.43
